Measurements reported in US8183236B2, “Compounds with HIV-1 integrase inhibitory activity and use thereof as anti-HIV/AIDS therapeutics” (University of Southern California, priority 2007, dated 2012).

Experiments:
[1] = biological target: T1, HIV-1 integrase (wild-type IN) (Human immunodeficiency virus type 1 group M subtype B, UniProt P12497); test: HIV-1 integrase strand transfer assay (32P-labeled 21-mer, gel); type: biochemical
Source text: (§1) The oligonucleotides 21 top, 5′-[…]-3′ (SEQ ID NO:1) and 21 bot, 5′-[…]-3′ (SEQ ID NO:2) were purchased from Norris Cancer Center Core Facility (University of Southern California) and purified by UV shadowing on polyacrylamide gel. To analyze the extent of 3′-processing and strand transfer using 5′-end labeled substrates, 21 top was 5′-end labeled using T4 polynucleotide kinase (Epicentre, Madison, Wis.) and γ [^32P]-ATP (Amersham Biosciences or ICN). The kinase was heat-inactivated and 21 bot was added in 1.5-molar excess. The mixture was heated at 95° C., allowed to cool slowly to room temperature, and run through a spin 25 mini-column (USA Scientific) to separate annealed double-stranded oligonucleotide from unincorporated material.
(§2) To determine the extent of 3′-processing and strand transfer, wild-type IN was preincubated at a final concentration of 200 nM with the inhibitor in reaction buffer (50 mM NaCl, 1 mM HEPES, pH 7.5, 50 μM EDTA, 50 μM dithiothreitol, 10% glycerol (w/v), 7.5 mM MnCl2, 0.1 mg/ml bovine serum albumin, 10 mM 2-mercaptoethanol, 10% dimethyl sulfoxide, and 25 mM MOPS, pH 7.2) at 30° C. for 30 min. Then, 20 nM of the 5′-end ^32P-labeled linear oligonucleotide substrate was added, and incubation was continued for an additional one hour. Reactions were quenched by the addition of an equal volume (16 μl) of loading dye (98% deionized formamide, 10 mM EDTA, 0.025% xylene cyanol and 0.025% bromophenol blue). An aliquot (5 μl) was electrophoresed on a denaturing 20% polyacrylamide gel (0.09 M tris-borate pH 8.3, 2 mM EDTA, 20% acrylamide, 8M urea).
(§3) Gels were dried, exposed in a PhosphorImager cassette, and analyzed using a Typhoon 8610 Variable Mode Imager (Amersham Biosciences) and quantitated using ImageQuant 5.2. Percent inhibition (% I) was calculated using the following equation: %I=100×[1−(D−C)/(N−C)]
(§4) where C, N, and D are the fractions of 21-mer substrate converted to 19-mer (3′-processing product) or strand transfer products for DNA alone, DNA plus IN, and IN plus drug, respectively. The IC50 values were determined by plotting the logarithm of drug concentration versus percent inhibition to obtain concentration that produced 50% inhibition. […]

[2] = biological target: T1, HIV-1 integrase (wild-type IN); test: HIV-1 integrase 3′-processing assay (32P-labeled 21-mer, gel); type: biochemical
Source text: as §1, §2, §3, §4

[3] = unit inferred, read-out: IN inhibition activity Strand transfer
[4] = unit inferred, read-out: IN inhibition activity 3′-processing
[5] = wild-type IN 200 nM, 7.5 mM MnCl2, read-out: Inhibition of IN Catalytic Activities IC50 (μM) 3′-processing
[6] = wild-type IN 200 nM, 7.5 mM MnCl2, read-out: Inhibition of IN Catalytic Activities IC50 (μM) Strand Transfer

Compound	IC50 [1, 3]	IC50 [2, 4]	IC50 [2, 5]	IC50 [1, 6]
Cn1c(SCC(=O)NNC(=O)c2ccccc2O)nnc1-c1ccccc1 [AS9A1]	58 ± 2 µM	64 ± 4 µM	–	–
COc1ccc(-n2c(Cc3ccccc3)nnc2SCC(=O)NNC(=O)c2ccccc2O)cc1 [AS9A2]	17 ± 1 µM	18 ± 1 µM	–	–
Cc1cc(C)nc(SCc2nnc(SCC(=O)NNC(=O)c3ccccc3O)n2-c2ccccc2)n1 [AS9A3]	27 ± 8 µM	51 ± 5 µM	–	–
O=C(CSc1nnc(Cc2ccccc2)n1C1CCCCC1)NNC(=O)c1ccccc1O [AS9A4]	17 ± 1 µM	21 ± 2 µM	–	–
Cc1cc(C)nc(SCc2nnc(SCC(=O)NNC(=O)c3ccccc3O)n2C)n1 [AS9A5]	< 100 µM	< 100 µM	–	–
COc1ccccc1-n1c(SCC(=O)NNC(=O)c2ccccc2O)nnc1-c1ccccc1O [AS9A6]	6 ± 1 µM	8 ± 1 µM	–	–
O=C(CSc1nnc(-c2ccncc2)n1-c1ccc(F)cc1)NNC(=O)c1ccccc1O [AS9A7]	31 ± 2 µM	49 ± 1 µM	–	–
O=C(CSc1nnnn1-c1ccccc1)NNC(=O)c1ccc(O)cc1O [AS9A8]	61 ± 6 µM	68 ± 3 µM	–	–
O=C(CSc1nnc(-c2ccc(Cl)cc2)n1-c1ccccc1)NNC(=O)c1ccccc1O [AS9A9]	5 ± 1 µM	11 ± 3 µM	–	–
COc1ccc(-c2nnc(SCC(=O)NNC(=O)c3ccccc3O)n2-c2ccccc2)cc1OC [AS9A10]	21 ± 1 µM	22 ± 1 µM	–	–
O=C(CSc1nnc(-c2ccccc2O)n1Cc1ccccc1)NNC(=O)c1ccccc1O [AS9A11]	9 ± 2 µM	15 ± 3 µM	–	–
Cc1ccc(-n2c(SCC(=O)NNC(=O)c3ccccc3O)nnc2-c2ccccc2O)cc1 [AS9]	3 ± 1 µM	5 ± 2 µM	–	–
COc1ccc(OC)c(C2C(C(=O)c3ccc(Cl)cc3)=C(O)C(=O)N2CCCCCC(=O)O)c1 (stereo not shown) [AS16]	40 ± 5 µM	88 µM	–	–
O=C(CSc1nnc(-c2ccccc2)n1Cc1ccccc1)NNC(=O)c1ccccc1O [AS90]	9 ± 7 µM	21 ± 6 µM	–	–
Cc1ccc(-n2c(SCC(=O)NNC(=O)c3ccccc3O)nnc2-c2ccccc2)cc1 [AS120]	12 ± 8 µM	23 ± 6 µM	–	–
COc1ccc(C2C(C(=O)c3ccc(Br)cc3)=C(O)C(=O)N2c2cccc(C(F)(F)F)c2)cc1OC (stereo not shown) [AS134]	26 ± 9 µM	47 ± 7 µM	–	–
Cc1ccc(C(=O)C2=C(O)C(=O)N(c3ncc(S(=O)(=O)c4ccc([N+](=O)[O-])cc4)s3)C2c2cccc(Cl)c2)cc1 (stereo not shown) [AS139 BAS 02234865]	8 ± 2 µM	27 ± 10 µM	–	–
COc1ccc(C2C(C(=O)c3ccc(Br)cc3)=C(O)C(=O)N2CCc2ccccc2)cc1OC (stereo not shown) [AS143]	42 ± 10 µM	60 ± 3 µM	–	–
CCOc1ccc(C(=O)C2=C(O)C(=O)N(c3nccs3)C2c2ccc(O)c(OC)c2)cc1 (stereo not shown) [AS161]	30 ± 7 µM	57 ± 27 µM	–	–
COc1ccc(C2C(C(=O)c3ccc(Br)cc3)=C(O)C(=O)N2c2cc(C(C)(C)C)on2)cc1OC (stereo not shown) [AS171]	43 ± 26 µM	45 ± 8 µM	–	–

Compound	IC50 [1, 3]	IC50 [2, 4]	IC50 [2, 5]	IC50 [1, 6]
O=C(CSc1nnc(Cc2ccccc2)n1-c1cccc(Cl)c1)NNC(=O)c1ccccc1O [AS230]	8 ± 4 µM	9 ± 1 µM	–	–
O=C(O)c1cccc(-c2ccc(/C=N/Nc3nnn[nH]3)o2)c1 [AV15A1]	96 ± 6 µM	> 100 µM	–	–
N=C1NC(=O)/C(=C\c2ccc(-c3cccc(C(=O)O)c3)o2)S1 [AV15A2]	90 ± 17 µM	> 100 µM	–	–
O=C(O)c1cccc(-c2ccc(/C=N/NC(=O)c3cccnc3)o2)c1 [AV15A4]	96 ± 6 µM	> 100 µM	–	–
Nc1nonc1C(=O)N/N=C/c1ccc(-c2cccc(C(=O)O)c2)o1 [AV15A5]	88 ± 21 µM	> 100 µM	–	–
O=C(O)c1cccc(-c2ccc(/C=C3\Sc4ccccc4C3=O)o2)c1 [AV15A6]	24 µM	76 µM	–	–
N#C/C(=C\c1ccc(-c2cccc(C(=O)O)c2)o1)c1nc2ccccc2[nH]1 [AV15A7]	17 µM	> 100 µM	–	–
N#C/C(=C\c1ccc(-c2ccc(O)c(C(=O)O)c2)o1)c1nc2ccccc2[nH]1 [AV15A9]	14 ± 4 µM	25 ± 10 µM	–	–
N#C/C(=C\c1ccc(-c2ccc(Cl)c(C(=O)O)c2)o1)c1nc2ccccc2[nH]1 [AV15A10]	30 µM	76 µM	–	–
CC1=C(C#N)c2nc(N)c(C#N)c(C)c2/C1=C/c1ccc(-c2cccc(C(=O)O)c2)o1 [AV15A11]	20 ± 13 µM	24 ± 16 µM	–	–
O=C(O)c1cc(-c2ccc(/C=C/c3cc(C(F)(F)F)[nH]c(=O)n3)o2)ccc1Cl [AV15A12]	50 ± 25 µM	74 ± 32 µM	–	–
O=C(O)c1cc(-c2ccc(/C=N/Nc3nc4nonc4nc3Nc3ccccc3F)o2)ccc1Cl [AV15A14]	13 ± 5 µM	16 ± 8 µM	–	–
O=C(O)c1cc(-c2ccc(/C=N/Nc3nc4nonc4nc3Nc3ccc(F)cc3)o2)ccc1Cl [AV15A15]	6.5 ± 1 µM	12 ± 6 µM	–	–
O=C(O)c1cccc(-c2ccc(/C=N/Nc3nc(N4CCOCC4)nc(N4CCOCC4)n3)o2)c1 [AV15A16]	> 100 µM	> 100 µM	–	–
COc1cc(/C=N/Nc2nc3nonc3nc2Nc2ccccc2F)ccc1O [AV15A18]	17 ± 5 µM	30 ± 12 µM	–	–
COC(=O)c1ccc(/C=N/Nc2nc3nonc3nc2Nc2ccccc2F)cc1 [AV15A19]	> 100 µM	> 100 µM	–	–
O=C(O)c1cccc(-c2ccc(/C=N/NC(=O)c3ccc(C(=O)N/N=C/c4ccc(-c5cccc(C(=O)O)c5)o4)cc3)o2)c1 [AV15A20]	95 µM	> 100 µM	–	–
Cc1cccc(Nc2nc3nonc3nc2N/N=C/c2ccc(-c3cccc(C(=O)O)c3)o2)c1 [AV15A21]	7 ± 2 µM	10 ± 5 µM	–	–
O=C(O)c1cc(-c2ccc(/C=c3\sc4nc5ccccc5n4c3=O)o2)ccc1Cl [AV15A22]	15 ± 4 µM	23 ± 3 µM	–	–
N#Cc1c(/N=C/c2ccc(-c3cccc(C(=O)O)c3)o2)sc2c1CCCC2 [AV15A23]	62 ± 7 µM	89 ± 20 µM	–	–

Compound	IC50 [1, 3]	IC50 [2, 4]	IC50 [2, 5]	IC50 [1, 6]
O=C(O)c1cc(-c2ccc(/C=N/Nc3nc4nonc4nc3Nc3cccc(Br)c3)o2)ccc1O [AV15A24]	3.4 ± 2 µM	5 ± 3 µM	–	–
COc1cc(-c2nc3ccccn3c2/N=C/c2ccc(-c3ccc(Cl)c(C(=O)O)c3)o2)ccc1O [AV15A25]	> 100 µM	> 100 µM	–	–
CN(C)c1nc(NCc2ccccc2)nc(N/N=C/c2ccc(-c3cccc(C(=O)O)c3)o2)n1 [AV15A26]	88 µM	> 100 µM	–	–
O=C(N/N=C/c1ccc(-c2ccc(Cl)cc2)o1)c1ccccc1 [AV15A29]	–	> 100 µM	–	–
Cc1cccc(Nc2nc3nonc3nc2N/N=C/c2ccc(-c3ccccc3Cl)o2)c1C [AV15A33]	–	> 100 µM	–	–
O=C(O)c1cccc(-c2ccc(/C=N/Nc3nc(Nc4ccccc4)nc(Nc4ccccc4)n3)o2)c1 [AV15A42]	–	89 ± 19 µM	–	–
N#C/C(=C\c1ccc(-c2cc(Cl)ccc2C(=O)O)o1)c1nc2ccccc2[nH]1 [AV15A52]	51 µM	–	–	–
COC(=O)c1ccc(C(=O)OC)c(NC(=O)c2ccc(C)c([N+](=O)[O-])c2)c1 [Compound X19]	–	–	92 µM	–
CCOC(=O)CCc1cc(C(=O)OCC)c(CCC(=O)OCC)cc1C(=O)OCC [Compound X35]	–	–	–	94 µM
Cc1ccc(C=C2SC(=S)N(CCC(=O)Nc3cccc(C(=O)O)c3)C2=O)cc1 [Compound X100]	–	–	–	> 100 µM
COc1ccccc1C=C1SC(=S)N(CCC(=O)Nc2ccc(O)cc2)C1=O [Compound X118]	–	–	99 ± 3 µM	–
O=C(CCCN1C(=O)/C(=C/c2cccs2)SC1=S)Nc1nc2ccccc2s1 [Compound X178]	–	–	98 ± 5 µM	–
Cc1nc(=O)c(-c2ccccc2)c(C)n1-c1ccc(C(=O)O)c(O)c1 [Compound X181]	–	–	–	73 ± 24 µM
O=C(NN1C(=O)/C(=C/c2ccc(Br)cc2)SC1=S)c1ccccc1O [Compound X220]	–	–	–	27 ± 6 µM
O=C1C(=Cc2c(NCCO)nc3ccccn3c2=O)SC(=S)N1Cc1ccco1 [Compound X281]	–	–	> 100 µM	–
O=C(Nc1nncs1)c1c(O)c2ccccc2n(Cc2ccccc2)c1=O [LM33]	–	–	–	36 µM
Nc1nonc1-c1nc2ccccc2n1CC(=O)N/N=C/c1ccc(-c2cccc(C(=O)O)c2)o1 [NST20]	–	–	–	68 µM
COC(=O)C1=C(C(=O)OC)SC(=C2C(=S)C(C)(C)N(C(=O)c3cccnc3)c3ccc(C)cc32)S1 [RT25]	–	–	> 100 µM	–
C=CCn1c(=O)c(C(=O)Nc2ccccc2OC)c(O)c2ccccc21 [XR3]	–	–	–	25 µM
CCn1c(=O)c(C(=O)Nc2ccccc2C(=O)OC)c(O)c2ccccc21 [XR15]	–	–	–	9.5 µM
